Assay results as given in patent US6969721B2, “Tricyclic-2-pyridone compounds useful as HIV reverse transcriptase inhibitors” (Bristol-Myers Squibb Pharma, priority 2000, dated 2005).
In brackets after ≈: the same amount, converted by molar mass.

Tested on: HIV-1 (RF)
Experiment: HIV RNA assay, microplate based compound evaluation in HIV-1 infected MT-2 cells
Type: cell-based
Settings: Human immunodeficiency virus 1, MT2, 72 h; HIV-1 (RF) in MT-2 cells, 3 days culture; virus dilutions selected to give this value; read-out: IC90 value (concentration of compound required to reduce the HIV RNA level by 90%)
Protocol: MT-2 and MT-4 cells were maintained in RPMI 1640 supplemented with 5% fetal calf serum (FCS) for MT-2 cells or 10% FCS for MT-4 cells, 2 mM L-glutamine and 50 μg/mL gentamycin, all from Gibco. HIV-1 RF was propagated in MT-4 cells in the same medium. Virus stocks were prepared approximately 10 days after acute infection of MT-4 cells and stored as aliquots at −70° C. Infectious titers of HIV-1(RF) stocks were 1-3×10^7 PFU (plaque forming units)/mL as measured by plaque assay on MT-2 cells (see below) Each aliquot of virus stock used for infection was thawed only once.
For evaluation of antiviral efficacy, cells to be infected were subcultured one day prior to infection. […]
Cell lysates or purified RNA in 3 M or 5 M GED were mixed with 5 M GED and capture probe to a final guanidinium isothiocyanate concentration of 3 M and a final biotin oligonucleotide concentration of 30 nM. […] Immobilized alkaline phosphatase activity was detected by addition of 100 μL of 0.2 mM 4-methylumbelliferyl phosphate (MUBP, JBL Scientific) in buffer (2.5 M diethanolamine pH 8.9 (JBL Scientific), 10 MM MgCl2, 5 mM zinc acetate dihydrate and 5 mM N-hydroxyethyl-ethylene-diamine-triacetic acid). […] Fluorescence at […] was measured using a microplate fluorometer (Dynateck) exciting at […]. […]

- IC90: 0.2 µg/mL (≈ 0.947 µM)
SMILES: Nc1ccn([C@H]2CC[C@@H](CO)O2)c(=O)n1 [ddC, 2′,3′-dideoxycytidine]
